Results from the supplement of paper PMC6045584.
± gives the standard deviation of the averaged measurements.

Assays:
IMATINIB = compound: Cc1ccc(NC(=O)c2ccc(CN3CCN(C)CC3)cc2)cc1Nc1nccc(-c2cccnc2)n1 [IMATINIB]; experiment: surviving fraction relative to DMSO-only wells; higher = less growth inhibition; conditions: exposure time: 5 days
Summary of the method: (§1)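 Lines were retained only if, across three screens, replicate Pearson r was >0.7 and median Z' was >0.3. Viability was measured as CellTiter-Glo luminescence and reported as surviving fraction relative to the median of DMSO-only wells. Readings followed 10 minutes at room temperature, after log-phase tumour cells seeded at 250–500 per well in 384-well plates had been exposed, from 24 hours after seeding, continuously for five days to inhibitors at 0.5, 1, 5, 10, 50, 100, 500 and 1000 nM.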

BEZ-235 = compound: Cn1c(=O)n(-c2ccc(C(C)(C)C#N)cc2)c2c3cc(-c4cnc5ccccc5c4)ccc3ncc21 [BEZ-235]; experiment: as above; conditions: exposure time: 5 days
Summary of the method: as §1

## CCK81 LARGE INTESTINE
IMATINIB; 0.5 nM
  surviving fraction: 0.813 ± 0.083
IMATINIB; 1 nM
  surviving fraction: 0.815 ± 0.09
IMATINIB; 5 nM
  surviving fraction: 0.81 ± 0.038
IMATINIB; 10 nM
  surviving fraction: 0.795 ± 0.048
IMATINIB; 50 nM
  surviving fraction: 0.706 ± 0.049
IMATINIB; 100 nM
  surviving fraction: 0.843 ± 0.11
IMATINIB; 500 nM
  surviving fraction: 0.741 ± 0.078
IMATINIB; 1000 nM
  surviving fraction: 0.778 ± 0.047

## G292 BONE
BEZ-235; 0.5 nM
  surviving fraction: 1.02 ± 0.026
BEZ-235; 1 nM
  surviving fraction: 0.987 ± 0.027
BEZ-235; 5 nM
  surviving fraction: 0.974 ± 0.025
BEZ-235; 10 nM
  surviving fraction: 0.982 ± 0.036
BEZ-235; 50 nM
  surviving fraction: 0.526 ± 0.032
BEZ-235; 100 nM
  surviving fraction: 0.357 ± 0.0091
BEZ-235; 500 nM
  surviving fraction: 0.202 ± 0.0096
BEZ-235; 1000 nM
  surviving fraction: 0.163 ± 0.0093
IMATINIB; 0.5 nM
  surviving fraction: 1.01 ± 0.037
IMATINIB; 1 nM
  surviving fraction: 1.038 ± 0.0097
IMATINIB; 5 nM
  surviving fraction: 1.09 ± 0.024
IMATINIB; 10 nM
  surviving fraction: 1.05 ± 0.024
IMATINIB; 100 nM
  surviving fraction: 1.04 ± 0.028
IMATINIB; 500 nM
  surviving fraction: 0.862 ± 0.029
IMATINIB; 1000 nM
  surviving fraction: 0.923 ± 0.065

## HCC38 BREAST
BEZ-235; 0.5 nM
  surviving fraction: 1.33 ± 0.21
BEZ-235; 1 nM
  surviving fraction: 1.21 ± 0.094
BEZ-235; 5 nM
  surviving fraction: 1.19 ± 0.037
BEZ-235; 10 nM
  surviving fraction: 1.2 ± 0.1
BEZ-235; 50 nM
  surviving fraction: 0.862 ± 0.013
BEZ-235; 100 nM
  surviving fraction: 0.666 ± 0.035
BEZ-235; 500 nM
  surviving fraction: 0.291 ± 0.041
BEZ-235; 1000 nM
  surviving fraction: 0.278 ± 0.054
IMATINIB; 0.5 nM
  surviving fraction: 1.32 ± 0.15
IMATINIB; 1 nM
  surviving fraction: 1.13 ± 0.13
IMATINIB; 5 nM
  surviving fraction: 1.39 ± 0.13
IMATINIB; 10 nM
  surviving fraction: 1.3 ± 0.27
IMATINIB; 50 nM
  surviving fraction: 1.31 ± 0.15
IMATINIB; 100 nM
  surviving fraction: 1.46 ± 0.21
IMATINIB; 500 nM
  surviving fraction: 1.08 ± 0.12
IMATINIB; 1000 nM
  surviving fraction: 1.1 ± 0.029

## HCC70 BREAST
BEZ-235; 0.5 nM
  surviving fraction: 1.1 ± 0.04
BEZ-235; 1 nM
  surviving fraction: 1.08 ± 0.075
BEZ-235; 5 nM
  surviving fraction: 1.02 ± 0.082
BEZ-235; 10 nM
  surviving fraction: 1.13 ± 0.1
BEZ-235; 50 nM
  surviving fraction: 0.836 ± 0.1
BEZ-235; 100 nM
  surviving fraction: 0.599 ± 0.068
BEZ-235; 500 nM
  surviving fraction: 0.347 ± 0.034
BEZ-235; 1000 nM
  surviving fraction: 0.296 ± 0.025
IMATINIB; 0.5 nM
  surviving fraction: 1.116 ± 0.0051
IMATINIB; 1 nM
  surviving fraction: 1.08 ± 0.071
IMATINIB; 5 nM
  surviving fraction: 1.04 ± 0.04
IMATINIB; 10 nM
  surviving fraction: 1.1 ± 0.054
IMATINIB; 50 nM
  surviving fraction: 1.17 ± 0.11
IMATINIB; 100 nM
  surviving fraction: 1.15 ± 0.043
IMATINIB; 1000 nM
  surviving fraction: 1.45 ± 0.69

## HMLE3 BREAST
BEZ-235; 0.5 nM
  surviving fraction: 1.03 ± 0.092
BEZ-235; 1 nM
  surviving fraction: 0.966 ± 0.069
BEZ-235; 5 nM
  surviving fraction: 0.961 ± 0.036
BEZ-235; 10 nM
  surviving fraction: 0.929 ± 0.047
BEZ-235; 50 nM
  surviving fraction: 0.582 ± 0.035
BEZ-235; 100 nM
  surviving fraction: 0.315 ± 0.011
BEZ-235; 500 nM
  surviving fraction: 0.111 ± 0.0049
BEZ-235; 1000 nM
  surviving fraction: 0.0777 ± 0.0078
IMATINIB; 0.5 nM
  surviving fraction: 1.08 ± 0.038
IMATINIB; 1 nM
  surviving fraction: 1.14 ± 0.11
IMATINIB; 5 nM
  surviving fraction: 1.11 ± 0.08
IMATINIB; 10 nM
  surviving fraction: 1.21 ± 0.062
IMATINIB; 50 nM
  surviving fraction: 1.14 ± 0.047
IMATINIB; 100 nM
  surviving fraction: 1.23 ± 0.13
IMATINIB; 500 nM
  surviving fraction: 1.16 ± 0.054
IMATINIB; 1000 nM
  surviving fraction: 1.01 ± 0.089

## HMT3552 BREAST
BEZ-235; 0.5 nM
  surviving fraction: 1.09
BEZ-235; 1 nM
  surviving fraction: 1.05
BEZ-235; 5 nM
  surviving fraction: 1.01
BEZ-235; 10 nM
  surviving fraction: 1.02
BEZ-235; 50 nM
  surviving fraction: 0.681
BEZ-235; 100 nM
  surviving fraction: 0.466
BEZ-235; 500 nM
  surviving fraction: 0.186
BEZ-235; 1000 nM
  surviving fraction: 0.191
IMATINIB; 0.5 nM
  surviving fraction: 1.01 ± 0.039
IMATINIB; 1 nM
  surviving fraction: 0.967 ± 0.041
IMATINIB; 5 nM
  surviving fraction: 1.04 ± 0.032
IMATINIB; 10 nM
  surviving fraction: 0.988 ± 0.057
IMATINIB; 50 nM
  surviving fraction: 1.15 ± 0.061
IMATINIB; 100 nM
  surviving fraction: 1.17 ± 0.062
IMATINIB; 500 nM
  surviving fraction: 1.18 ± 0.047
IMATINIB; 1000 nM
  surviving fraction: 1.16 ± 0.076

## HS578T BREAST
BEZ-235; 0.5 nM
  surviving fraction: 1.13 ± 0.15
BEZ-235; 1 nM
  surviving fraction: 0.972 ± 0.15
BEZ-235; 5 nM
  surviving fraction: 0.997 ± 0.18
BEZ-235; 10 nM
  surviving fraction: 0.817 ± 0.092
BEZ-235; 50 nM
  surviving fraction: 0.46 ± 0.028
BEZ-235; 100 nM
  surviving fraction: 0.384 ± 0.026
BEZ-235; 500 nM
  surviving fraction: 0.263 ± 0.027
BEZ-235; 1000 nM
  surviving fraction: 0.257 ± 0.02
IMATINIB; 0.5 nM
  surviving fraction: 1.23 ± 0.27
IMATINIB; 1 nM
  surviving fraction: 1.01 ± 0.11
IMATINIB; 5 nM
  surviving fraction: 1.02 ± 0.12
IMATINIB; 10 nM
  surviving fraction: 1.14 ± 0.27
IMATINIB; 50 nM
  surviving fraction: 1.21 ± 0.18
IMATINIB; 100 nM
  surviving fraction: 1.07 ± 0.1
IMATINIB; 500 nM
  surviving fraction: 1.1 ± 0.16
IMATINIB; 1000 nM
  surviving fraction: 1.2 ± 0.17
